Measured values from ChEMBL document CHEMBL1914316, “Conversion of systemically-distributed triazole-based stearoyl-CoA desaturase (SCD) uHTS hits into liver-targeted SCD inhibitors” (Bioorg Med Chem Lett, 2011).
Each block holds one molecule with its values, some of them ahead of it. Calls of active or inactive are those of the source. The calls are words filed in the database; no cut-off is given here.

Tests used:
Acyl-CoA desaturase 1 [1] = target: T1, Acyl-CoA desaturase 1 (Rattus norvegicus, UniProt P07308); assay: Inhibition of rat SCD by rat microsomal assay
T1 sequence (P07308 whole entry): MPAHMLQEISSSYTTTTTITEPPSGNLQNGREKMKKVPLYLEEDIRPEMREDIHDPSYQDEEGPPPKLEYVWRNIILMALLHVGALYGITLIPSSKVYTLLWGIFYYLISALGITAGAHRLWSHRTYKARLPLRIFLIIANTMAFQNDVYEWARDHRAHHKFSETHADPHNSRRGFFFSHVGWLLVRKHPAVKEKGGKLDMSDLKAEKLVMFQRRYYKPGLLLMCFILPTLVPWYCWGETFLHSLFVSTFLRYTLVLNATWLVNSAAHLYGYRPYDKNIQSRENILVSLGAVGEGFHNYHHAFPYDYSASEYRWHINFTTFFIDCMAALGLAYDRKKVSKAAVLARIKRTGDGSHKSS

[2] = Drug uptake in C57BL/6 mouse liver at 10 mg/kg, po after 6 hrs; type: ADME, organism-based, C57BL6; design: dose 10 mg/kg, route oral; conditions: read-out: Drug uptake
Acyl-CoA desaturase 1 [3] = target: T1, Acyl-CoA desaturase 1; assay: Inhibition of SCD in rat hepatocytes assessed as conversion of [14C]-stearic acid to [14C]-oleic acid preincubated for 15 mins measured after 1 hrs by scintillation counting; type: cell-based, Hepatocyte
Stearoyl-CoA desaturase = target: T2, Stearoyl-CoA desaturase (Homo sapiens, UniProt O00767); assay: Inhibition of SCD in human HepG2 cells assessed as conversion of [1-(14)C]-stearic acid to (14)C-oleic acid; type: cell-based
T2 sequence (O00767 whole entry): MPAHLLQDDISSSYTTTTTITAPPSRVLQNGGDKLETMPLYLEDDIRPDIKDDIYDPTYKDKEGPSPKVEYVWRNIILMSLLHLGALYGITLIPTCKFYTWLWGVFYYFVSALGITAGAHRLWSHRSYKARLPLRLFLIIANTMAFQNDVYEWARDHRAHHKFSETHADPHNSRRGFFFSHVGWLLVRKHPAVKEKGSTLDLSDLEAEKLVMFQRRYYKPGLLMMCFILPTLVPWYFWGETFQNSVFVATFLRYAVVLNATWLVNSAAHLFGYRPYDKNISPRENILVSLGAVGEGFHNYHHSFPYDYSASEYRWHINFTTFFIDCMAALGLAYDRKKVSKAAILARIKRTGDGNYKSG

[4] = Drug uptake in C57BL/6 mouse liver at 30 mg/kg, po after 3 hrs; type: ADME, organism-based, C57BL6; design: dose 30 mg/kg, route oral; conditions: read-out: Drug uptake
Mus musculus [5] = assay: Inhibition of SCD in C57BL/6 mouse liver assessed as conversion of [1-(14)C]-stearic acid to [1-(14)C]-oleic acid at 30 mg/kg, po after 3 hrs; type: functional
[6] = Drug uptake in C57BL/6 mouse plasma at 10 mg/kg, po after 6 hrs; type: ADME, organism-based, C57BL6; design: dose 10 mg/kg, route oral; conditions: read-out: Drug uptake
[7] = Drug uptake in C57BL/6 mouse harderian glands at 10 mg/kg, po after 6 hrs; type: ADME, organism-based, C57BL6, Harderian gland; design: dose 10 mg/kg, route oral; conditions: read-out: Drug uptake
[8] = Drug uptake in C57BL/6 mouse skin at 10 mg/kg, po after 6 hrs; type: ADME, organism-based, C57BL6, Zone of skin; design: dose 10 mg/kg, route oral; conditions: read-out: Drug uptake
Nucleic Acid = assay: Ratio of drug uptake in liver to skin of C57BL/6 mouse at 10 mg/kg, po after 6 hrs; type: ADME, organism-based, C57BL6; design: dose 10 mg/kg, route oral; conditions: in vivo
Mus musculus [9] = assay: Inhibition of SCD in C57BL/6 mouse liver assessed as conversion of [1-(14)C]-stearic acid to [1-(14)C]-oleic acid at 10 mg/kg, po after 3 hrs; type: functional; conditions: C57BL/6, Liver
Mus musculus [10] = assay: Ratio of drug uptake in liver to harderian glands of C57BL/6 mouse at 10 mg/kg, po after 6 hrs; conditions: in vivo
[11] = Inhibition of mouse SCD

IC50 (Acyl-CoA desaturase 1 [1]): 1250 nM
Structure (SMILES): O=C(O)Cn1nnc(-c2cnc(-c3cn(Cc4cc(Br)c(Br)c(Br)c4)nn3)cn2)n1

IC50 (Acyl-CoA desaturase 1 [1]): 5250 nM
Structure (SMILES): O=C(O)CCCCc1nc(-c2cn(Cc3cc(Br)c(Br)c(Br)c3)nn2)no1

IC50 (Acyl-CoA desaturase 1 [1]): 1810 nM
Structure (SMILES): O=C(O)Cn1nnc(-c2ccc(-c3cn(Cc4cc(Cl)c(Cl)c(Cl)c4)nn3)nn2)n1

IC50 (Acyl-CoA desaturase 1 [1]): 552 nM
Structure (SMILES): O=C(O)CCc1nc(-c2cn(Cc3cc(Br)c(Br)c(Br)c3)nn2)no1

IC50 (Acyl-CoA desaturase 1 [1]): 719 nM
Structure (SMILES): O=C(O)Cn1nnc(-c2cc(-c3cn(Cc4cc(Cl)c(Cl)c(Cl)c4)nn3)ccn2)n1

IC50 (Acyl-CoA desaturase 1 [1]): > 20000 nM
Structure (SMILES): O=C(O)Cn1nnc(-c2cn(Cc3cc(Br)c(Br)c(Br)c3)nn2)n1

IC50 (Acyl-CoA desaturase 1 [1]): 49 nM | concentration at 6 h [2]: 330 nM | IC50 (Acyl-CoA desaturase 1 [3]): 975 nM | IC50 (Stearoyl-CoA desaturase): > 100000 nM | concentration at 3 h [4]: 4100 nM
Structure (SMILES): O=C(O)Cn1nnc(-c2cnc(-c3cn(Cc4cc(Cl)c(Cl)c(Cl)c4)nn3)s2)n1
inhibition (Mus musculus [5]): inactive

IC50 (Acyl-CoA desaturase 1 [1]): 56 nM | concentration at 6 h [2]: 470 nM | IC50 (Acyl-CoA desaturase 1 [3]): 694 nM | IC50 (Stearoyl-CoA desaturase): 6310 nM | concentration at 3 h [4]: 900 nM
Structure (SMILES): O=C(O)Cn1nnc(-c2cncc(-c3cn(Cc4cc(Br)c(Br)c(Br)c4)nn3)c2)n1
inhibition (Mus musculus [5]): inactive

IC50 (Acyl-CoA desaturase 1 [1]): 21 nM | concentration at 6 h [2]: 1660 nM | IC50 (Acyl-CoA desaturase 1 [3]): 212 nM | IC50 (Stearoyl-CoA desaturase): 37700 nM | concentration at 3 h [4]: 8400 nM | IC50 [11]: 10 nM | Ratio (Mus musculus [10]): 100
Structure (SMILES): O=C(O)Cn1nnc(-c2cc(-c3cn(Cc4cc(Br)c(Br)c(Br)c4)nn3)no2)n1
inhibition in vivo at 30 mg/kg (Mus musculus [5]; C57BL/6, Liver): 30%

Second part, the molecule before the results:

Structure (SMILES): O=C(O)CCCc1nc(-c2cn(Cc3cc(Br)c(Br)c(Br)c3)nn2)no1
IC50 (Acyl-CoA desaturase 1 [1]): 216 nM

Structure (SMILES): O=C(O)Cn1nnc(-c2cn(CCCc3cc(Br)c(Br)c(Br)c3)nn2)n1
IC50 (Acyl-CoA desaturase 1 [1]): 911 nM

Structure (SMILES): O=C(O)Cn1nnc(-c2cn(CCc3cc(Br)c(Br)c(Br)c3)nn2)n1
IC50 (Acyl-CoA desaturase 1 [1]): 19900 nM

Structure (SMILES): O=C(O)Cn1nnc(-c2ccnc(-c3cn(Cc4cc(Cl)c(Cl)c(Cl)c4)nn3)c2)n1
IC50 (Acyl-CoA desaturase 1 [1]): 1310 nM

Structure (SMILES): O=C(O)CCCCCc1nc(-c2cn(Cc3cc(Br)c(Br)c(Br)c3)nn2)no1
IC50 (Acyl-CoA desaturase 1 [1]): 8320 nM

Structure (SMILES): O=C(O)Cn1nnc(-c2cnc(-c3cn(Cc4cc(Cl)c(Cl)c(Cl)c4)nn3)nc2)n1
IC50 (Acyl-CoA desaturase 1 [1]): 343 nM

Structure (SMILES): NC(=O)c1nnn(Cc2cc(Br)c(Br)c(Br)c2)c1N
IC50 (Acyl-CoA desaturase 1 [1]): 6 nM

Structure (SMILES): NC(=O)c1cn(Cc2cc(Br)c(Br)c(Br)c2)nn1
IC50 (Acyl-CoA desaturase 1 [1]): 19 nM | concentration at 6 h [6]: 740 nM | concentration at 6 h [2]: 2690 nM | concentration at 6 h [7]: 6630 nM | concentration at 6 h [8]: 740 nM | Ratio (Nucleic Acid): 3.6 | IC50 (Acyl-CoA desaturase 1 [3]): 10100 nM | IC50 (Stearoyl-CoA desaturase): 760 nM | concentration at 3 h [4]: 14000 nM | inhibition in vivo at 10 mg/kg (Mus musculus [9]): 46% | Ratio (Mus musculus [10]): 0.4

Structure (SMILES): NC(=O)c1nnn(Cc2cc(Cl)c(Cl)c(Cl)c2)c1N
IC50 (Acyl-CoA desaturase 1 [1]): 12 nM
